Test results: publication PMC10815436, “Toward New AQP4 Inhibitors: ORI-TRN-002” (International Journal of Molecular Sciences, 2024)
pIC50, pKd: −log10 of the molar value. Values joined by “and” are separate entries in the source; they are usually repeats but may differ in a detail not shown here. Identical values can stand only once. Like-named read-outs stand apart in the source and are kept apart here.

Tests used:
[1] = Unbound fraction in liver (BRAINstorm); format: in vitro ADME
Source text: (§1) To evaluate the potential drug-like properties of the electronic homologue ORI-TRN-002, we measured the compound’s properties in the Origenis BRAINstorm™ platform. This platform uses affinity chromatography under standard conditions and standard calibrants to measure compound properties with high accuracy and reproducibility. […] It supersedes the solubility and free fraction limitations of the Aeromics/Simcere drug AER-270 [21] (Figure 2). ORI-TRN-002 requires no prodrug approach and serves as an ideal starting point for further optimization.
(§2) The chemical structures of the three AQP4 inhibitors studied and their measured physico-chemical properties (logD at pH 7.4, log10 of molar human serum albumin affinity constant, percent human plasma protein binding, log10 of human alpha acid glycoprotein affinity constant, unbound fraction in liver, and unbound fraction in hepatocytes). TEXT PRINTED IN THE PICTURE: TGN-020: logD: 0.04; logKaHSA: 3.51; hPPB%: 68.20; logKaRSA: 2.72; logKaAGP: 1.18; fu, liver: 1.00; fu, hep: 0.92 | AER-270: logD: 3.31; logKaHSA: 5.46; hPPB%: 99.50; logKaRSA: 5.26; logKaAGP: 6.94; fu, liver: <0.01; fu, hep: <0.01 | ORI-TRN-002: logD: -0.07; logKaHSA: 2.99; hPPB%: 39.20; logKaRSA: 2.89; logKaAGP: 1.88; fu, liver: 1.00; fu, hep: 0.95

[2] = target: rat serum albumin (Rattus norvegicus, UniProt P02770); assay: Rat serum albumin affinity (BRAINstorm affinity chromatography); format: binding; settings: for Kd: read-out: logKaRSA (rat serum albumin affinity) (converted)
Source text: as §1, §2

[3] = Octanol-water distribution coefficient at pH 7.4 (Origenis BRAINstorm platform, affinity chromatography); format: physicochemical
Source text: as §1, §2

[4] = Unbound fraction in hepatocytes (BRAINstorm); format: in vitro ADME
Source text: as §1, §2

[5] = Percentage of binding to human plasma proteins (BRAINstorm); format: in vitro ADME
Source text: as §1, §2

[6] = system: human AQP4; settings: cited from earlier work
[7] = target: human serum albumin (Homo sapiens, UniProt P02768); assay: Human serum albumin affinity (BRAINstorm affinity chromatography); format: binding; settings: for Kd: read-out: logKaHSA (log10 of molar human serum albumin affinity constant) (converted)
Source text: as §1, §2

[8] = system: cerebral edema; design: method as in doi:10.1097/01.ccm.0000473851.20338.3b, PMID 29635589; settings: various traumatic brain injury models; cited from earlier work
[9] = system: cerebral edema; settings: cited from earlier work
[10] = system: AQP4; design: method as in PMID 32506554, PMID 30934923; settings: cited from earlier work
[11] = system: AQP4.M23; design: method as in PMID 17178220; settings: oocytes; cited from earlier work
[12] = target: rat AQP4 (Rattus norvegicus, UniProt P47863); assay: Osmotic water permeability of rat AQP4-expressing Xenopus laevis oocytes (high-resolution volume recording, hyposmotic challenge); settings: IC50 for rAQP4 (AQP4-mediated water permeability), rat AQP4 in Xenopus laevis oocytes, different concentrations, n = 6, mean ± SEM
Source text: To resolve ORI-TRN-002’s inhibitory effect on AQP4, rat AQP4 (rAQP) was heterologously expressed in Xenopus laevis oocytes, and the AQP4-mediated water permeability was quantified. Following the introduction of an abrupt hyposmotic challenge (−100 mOsm), we determined the osmotic water permeability of the oocytes during the continuous recording of the oocyte volume with a high-resolution volume recording system. This experimental setup allows for the osmotic gradient to be introduced at a faster rate than the rate of cell volume change and sufficiently fast data acquisition to obtain several data points at the initial linear part of the cell volume change, which is required to obtain the osmotic water permeability of an AQP-expressing oocyte. The native oocyte membrane has a low inherent water permeability, thus the uninjected oocytes display a negligible background (see Figure 3A for summarized data on osmotic water permeabilities; compare 0.21 ± 0.13 × 10^−3 cm s^−1, n = 9, for uninjected oocytes to 3.80 ± 0.33 × 10^−3 cm s^−1, n = 11, for AQP4-expressing oocytes; representative volume traces shown as insets)). The oocytes were exposed to the novel drugs (or control solution) for 60 min. prior to the determination of water permeability. The established AQP4 blockers, TGN-020 and AER-270, served as positive controls. […]

[13] = system: AQP4-expressing oocytes; assay: Membrane potential of treated AQP4-expressing oocytes (toxicity check); format: cell-based, Xenopus laevis
Source text: Following the introduction of an abrupt hyposmotic challenge (−100 mOsm), we determined the osmotic water permeability of the oocytes during the continuous recording of the oocyte volume with a high-resolution volume recording system. This experimental setup allows for the osmotic gradient to be introduced at a faster rate than the rate of cell volume change and sufficiently fast data acquisition to obtain several data points at the initial linear part of the cell volume change, which is required to obtain the osmotic water permeability of an AQP-expressing oocyte. […] The oocytes were exposed to the novel drugs (or control solution) for 60 min. prior to the determination of water permeability. The established AQP4 blockers, TGN-020 and AER-270, served as positive controls.

[14] = liver, read-out: fu, liver (unbound fraction in liver)
[15] = read-out: fu, hep (unbound fraction in hepatocytes)
[16] = human plasma proteins, read-out: hPPB% (percent human plasma protein binding) (converted)

human serum albumin, sequence (P02768 25-609): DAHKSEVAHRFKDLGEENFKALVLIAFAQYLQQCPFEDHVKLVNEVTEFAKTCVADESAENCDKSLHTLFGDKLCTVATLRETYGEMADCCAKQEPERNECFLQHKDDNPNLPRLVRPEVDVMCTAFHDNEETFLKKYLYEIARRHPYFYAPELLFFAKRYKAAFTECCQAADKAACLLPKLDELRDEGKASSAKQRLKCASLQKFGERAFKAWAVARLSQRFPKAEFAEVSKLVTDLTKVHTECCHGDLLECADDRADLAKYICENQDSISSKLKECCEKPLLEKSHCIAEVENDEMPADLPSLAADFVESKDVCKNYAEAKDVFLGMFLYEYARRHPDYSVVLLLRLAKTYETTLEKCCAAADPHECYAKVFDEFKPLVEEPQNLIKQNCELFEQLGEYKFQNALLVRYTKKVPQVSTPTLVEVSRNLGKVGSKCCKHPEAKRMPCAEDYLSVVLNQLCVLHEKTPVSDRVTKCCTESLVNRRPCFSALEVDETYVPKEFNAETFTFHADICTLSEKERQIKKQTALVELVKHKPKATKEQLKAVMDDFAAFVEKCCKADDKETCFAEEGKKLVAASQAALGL
rat serum albumin, sequence (P02770 25-608): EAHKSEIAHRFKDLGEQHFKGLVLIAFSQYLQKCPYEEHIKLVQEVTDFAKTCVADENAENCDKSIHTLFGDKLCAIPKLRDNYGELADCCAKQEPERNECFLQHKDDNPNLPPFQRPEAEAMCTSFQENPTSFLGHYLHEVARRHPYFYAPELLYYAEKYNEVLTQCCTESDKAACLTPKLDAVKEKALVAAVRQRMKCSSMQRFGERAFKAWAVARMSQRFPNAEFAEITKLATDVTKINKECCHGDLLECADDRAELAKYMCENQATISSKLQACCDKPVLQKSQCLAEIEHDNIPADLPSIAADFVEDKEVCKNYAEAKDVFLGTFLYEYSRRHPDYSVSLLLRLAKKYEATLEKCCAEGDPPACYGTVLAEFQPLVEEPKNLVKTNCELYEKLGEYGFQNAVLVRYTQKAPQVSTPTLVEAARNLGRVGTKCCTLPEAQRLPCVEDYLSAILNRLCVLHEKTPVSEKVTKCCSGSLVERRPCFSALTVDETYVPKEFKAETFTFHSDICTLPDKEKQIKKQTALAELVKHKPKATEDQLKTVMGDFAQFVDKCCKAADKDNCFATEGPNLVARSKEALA
rat AQP4, sequence (P47863 23-323): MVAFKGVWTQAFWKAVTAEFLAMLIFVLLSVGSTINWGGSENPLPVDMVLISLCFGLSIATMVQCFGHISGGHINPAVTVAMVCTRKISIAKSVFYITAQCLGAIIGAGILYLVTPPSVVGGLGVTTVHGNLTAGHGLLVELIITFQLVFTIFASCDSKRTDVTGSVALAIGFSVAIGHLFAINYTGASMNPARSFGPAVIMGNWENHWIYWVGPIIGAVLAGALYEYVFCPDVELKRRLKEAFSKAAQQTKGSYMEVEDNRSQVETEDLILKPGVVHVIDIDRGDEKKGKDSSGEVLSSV

O=C(Nc1cc(C(F)(F)F)cc(C(F)(F)F)c1)c1cc(Cl)ccc1O [AER-270, N-[3,5-bis (trifluoromethyl)phenyl]-5-chloro-2-hydroxybenzamide]
fraction unbound [1]: < 0.01 | pKd [2]: 5.26 | chromatographic logD [3]: 3.31 | fraction unbound [4]: < 0.01 | fraction unbound ([5]; plasma): 0.005 | maximal inhibition of human AQP4 [6]: 20% | pKd [7]: 5.46

O=C(Nc1cc(C(F)(F)F)cc(C(F)(F)F)c1)c1cc(Cl)ccc1OP(=O)(O)O [AER-271, 2-([3,5-Bis(trifluoromethyl)phenyl]carbamoyl)-4-chlorophenyl dihydrogen phosphate]
reduction of cerebral edema [8]: ineffective | AQP4-mediated cerebral edema ([9]; rodent model of transient MCAO): selectively and effectively reduced | neurological outcome ([9]; rodent model of transient MCAO): improved | swelling in two models of CNS injury complicated by cerebral edema ([9]; water intoxication and ischemic stroke modeled by MCAO): reduce swelling

CCCCNc1cc(C(=O)Nc2ccncc2)cc(S(N)(=O)=O)c1Oc1ccccc1 [AqB013]
block of AQP4-mediated water permeability [10]: not be effective blockers

CCOc1ccc2nc(S(N)(=O)=O)sc2c1 [Ethoxyzolamide]
inhibition of AQP4.M23 [11]: inhibit

O=c1[nH]c(-c2cccnc2)nc2[nH]ncc12 [ORI-TRN-002, 6-(pyridin-3-yl)-1H-pyrazolo[3,4-d]pyrimidin-4(5H)-one]
fraction unbound [1, 14]: 1 | pIC50 [12]: ~5.52 and 5.54 | Kd [2]: 1290 µM | membrane potential of treated oocytes ([13]; 20 μM acute application, 10 min, non-treated -25.6 ± 0.50 mV, n = 9): −26.9 ± 0.61 mV | membrane potential of treated oocytes ([13]; 20 µM, 60 min, non-treated −26.2 ± 0.62 mV, n = 12): −24.4 ± 0.74 mV | chromatographic logD ([3]; octanol/water): -0.07 | fraction unbound [4, 15]: 0.95 | fraction unbound [5, 16]: 0.608 | Kd [7]: 1020 µM

O=C(Nc1nncs1)c1cccnc1 [TGN-020, 2-(nicotinamide)-1,3,4-thiadiazole]
fraction unbound [1, 14]: 1 | Kd [2]: 1910 µM | chromatographic logD ([3]; octanol/water): 0.04 | fraction unbound [4, 15]: 0.92 | fraction unbound [5, 16]: 0.318 | Kd [7]: 309 µM

CC(=O)Nc1nnc(S(N)(=O)=O)s1 [acetazolamide]
block of AQP4-mediated water permeability [10]: not be effective blockers

CCCCNc1cc(C(=O)O)cc(S(N)(=O)=O)c1Oc1ccccc1 [bumetanide]
block of AQP4-mediated water permeability [10]: not be effective blockers

CC[N+](CC)(CC)CC [tetraethylammonium (TEA), tetraethylammonium]
block of AQP4-mediated water permeability [10]: not be effective blockers
